Results taken from US7456177B2, “Heteroaryl fused azapolycyclic compounds” (Pfizer Inc., priority 2003, dated 2008).

Row | Structure (SMILES) | melting point [°C]
1 | CN1CC2Cc3cccnc3C(C2)C1.Cl.Cl (centres unmarked) | 260 to 266
2 | Cn1nc2c3c(cccc3c1=O)C1CNCC2C1 (centres unmarked) | 320 to 322
